In PubChem BioAssay AID330 (DTP/NCI, 2004):
Values joined by “and” are separate entries in the source; they are usually repeats but may differ in a detail not shown here. Identical values can stand only once. Toxic doses and inconclusive results are not listed.

Test system: P388 leukemia ip, CD2F1 mice, survival T/C
Assay: NCI In Vivo Anticancer Drug Screen. Data for tumor model P388 Leukemia (intraperitoneal) in CD2F1 (CDF1) mice
Settings: endpoint: median survival time, higher = longer survival
How it was run: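 Mice carrying the transplanted tumor received test compound or vehicle. Survival was recorded in each group, and the value is the treated-group measurement divided by that of the vehicle-treated control group.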

[1] = dose: 50.0 mg/kg/injection, schedule: Q01DX009 (ip), vehicle: saline with Tween-80
[2] = dose: 50.0 mg/kg/injection, schedule: Q04DX003 (ip), vehicle: saline with Tween-80
[3] = dose: 100.0 mg/kg/injection, schedule: Q01DX009 (ip), vehicle: saline with Tween-80
[4] = dose: 100.0 mg/kg/injection, schedule: Q04DX003 (ip), vehicle: saline with Tween-80
[5] = dose: 200.0 mg/kg/injection, schedule: Q04DX003 (ip), vehicle: saline with Tween-80
[6] = dose: 50.0 mg/kg/injection, schedule: Q01DX005 (ip), vehicle: Klucel (hydroxypropylcellulose) (HPC)
[7] = dose: 100.0 mg/kg/injection, schedule: Q01DX005 (ip), vehicle: Klucel (hydroxypropylcellulose) (HPC)
[8] = dose: 100.0 mg/kg/injection, schedule: Q01DX001 (ip), vehicle: saline with Tween-80
[9] = dose: 200.0 mg/kg/injection, schedule: Q01DX001 (ip), vehicle: saline with Tween-80
[10] = dose: 400.0 mg/kg/injection, schedule: Q01DX001 (ip), vehicle: saline with Tween-80
[11] = dose: 200.0 mg/kg/injection, schedule: Q01DX005 (ip), vehicle: Klucel (hydroxypropylcellulose) (HPC)
[12] = dose: 50.0 mg/kg/injection, schedule: Q01DX005 (ip), vehicle: saline with Tween-80
[13] = dose: 100.0 mg/kg/injection, schedule: Q01DX005 (ip), vehicle: saline with Tween-80
[14] = dose: 200.0 mg/kg/injection, schedule: Q01DX005 (ip), vehicle: saline with Tween-80

Question: What does the source list for `O=C1c2ccccc2C(=O)c2c(NCC3CO3)ccc(NCC3CO3)c21` (configuration not stated)?
Answer: T/C (dose: 0.75 mg/kg/injection, schedule: Q01DX005 (ip), vehicle: Klucel (hydroxypropylcellulose) (HPC)): 112 % of control; T/C (dose: 1.5 mg/kg/injection, schedule: Q01DX005 (ip), vehicle: Klucel (hydroxypropylcellulose) (HPC)): 112 % of control; T/C (dose: 3.0 mg/kg/injection, schedule: Q01DX005 (ip), vehicle: Klucel (hydroxypropylcellulose) (HPC)): 114 % of control; T/C (dose: 6.0 mg/kg/injection, schedule: Q01DX005 (ip), vehicle: Klucel (hydroxypropylcellulose) (HPC)): 114 % of control

Question: Which T/C (dose: 50.0 mg/kg/injection, schedule: Q01DX005 (ip), vehicle: Klucel + Tween-80) does the source give for `NS(=O)(=O)c1ccc(N2C(=S)N(c3ccccc3)C(=Nc3ccccc3)C2=Nc2ccccc2)cc1` here?
Answer: Its T/C is 96 % of control.

Question: What about the T/C (dose: 100.0 mg/kg/injection, schedule: Q01DX005 (ip), vehicle: Klucel + Tween-80) of the same compound?
Answer: The T/C was 105 % of control.

Question: What about the T/C (dose: 200.0 mg/kg/injection, schedule: Q01DX005 (ip), vehicle: Klucel + Tween-80) of the same compound?
Answer: Its T/C is 89 % of control.

Question: `CC(CCC(=O)O)C1CCC2C3CCC4CC(OC=O)CCC4(C)C3CC(OC=O)C12C` (configuration not stated) was tested. Which T/C [1] did it give?
Answer: Its T/C is 95 % of control.

Question: What about the T/C [2] of the same compound?
Answer: Its T/C is 105 % of control.

Question: What about the T/C [3] of the same compound?
Answer: The T/C was 90 % of control.

Question: What about the T/C [4] of the same compound?
Answer: Its T/C is 100 % of control.

Question: And the T/C (dose: 200.0 mg/kg/injection, schedule: Q01DX009 (ip), vehicle: saline with Tween-80)?
Answer: The T/C was 90 % of control.

Question: And the T/C [5]?
Answer: Its T/C is 100 % of control.

Question: Which T/C (dose: 25.0 mg/kg/injection, schedule: Q01DX005 (ip), vehicle: Klucel (hydroxypropylcellulose) (HPC)) does the source give for `Nc1nc(N)c2nc(Sc3ccc(F)cc3)c(N)nc2n1` here?
Answer: Its T/C is 97 % of control.

Question: What about the T/C [6] of the same compound?
Answer: Its T/C is 94 % of control.

Question: And the T/C [7]?
Answer: Its T/C is 88 % of control.

Question: How did the T/C (dose: 100.0 mg/kg/injection, schedule: Q01DX009 (ip), vehicle: other) turn out when `CCCCCCCCCCCSSCCCCCCCCCCC` was run?
Answer: The T/C was 100 % of control.

Question: And the T/C (dose: 100.0 mg/kg/injection, schedule: Q04DX003 (ip), vehicle: other)?
Answer: Its T/C is 109 % of control.

Question: And the T/C (dose: 200.0 mg/kg/injection, schedule: Q01DX009 (ip), vehicle: other)?
Answer: Its T/C is 109 % of control.

Question: And the T/C (dose: 200.0 mg/kg/injection, schedule: Q04DX003 (ip), vehicle: other)?
Answer: The T/C was 104 % of control.

Question: And the T/C (dose: 400.0 mg/kg/injection, schedule: Q01DX009 (ip), vehicle: other)?
Answer: Its T/C is 104 % of control.

Question: What about the T/C (dose: 400.0 mg/kg/injection, schedule: Q04DX003 (ip), vehicle: other) of the same compound?
Answer: Its T/C is 100 % of control.

Question: With `c1ccc(C(Sc2c[nH]c3ccccc23)(c2ccccc2)c2ccccc2)cc1` (tested in a mixture with another compound) as the compound, how does the T/C [8] read?
Answer: Its T/C is 100 % of control.

Question: And the T/C [9]?
Answer: The T/C was 90 % of control.

Question: And the T/C [10]?
Answer: Its T/C is 92 % of control.

Question: Which results are given for `CCOC(=O)/C(C#N)=C\c1c(OC(C)=O)cn2c(C)cccc12`?
Answer: T/C [8]: 104 % of control; T/C [9]: 98 % of control; T/C [10]: 98 % of control

Question: For `O=C(CCCc1ccc(N(CCCl)CCCl)cc1)OCCOc1ccccc1`, which T/C (dose: 12.5 mg/kg/injection, schedule: Q01DX009 (ip), vehicle: saline with Tween-80) is on record?
Answer: Its T/C is 155 % of control.

Question: What about the T/C (dose: 25.0 mg/kg/injection, schedule: Q01DX009 (ip), vehicle: saline with Tween-80) of the same compound?
Answer: The T/C was 223 % of control.

Question: And the T/C [1]?
Answer: Its T/C is 174 % of control and 200 % of control.

Question: Which results are given for `Cc1cnc(C)n2c(C)nnc12`?
Answer: T/C (dose: 100.0 mg/kg/injection, schedule: Q04DX003 (ip), vehicle: saline): 99 % of control; T/C (dose: 200.0 mg/kg/injection, schedule: Q04DX003 (ip), vehicle: saline): 96 % of control

Question: For `COc1ccc(C=C2C(=O)N(C)C(=O)N(C)C2=O)cc1`, which T/C [1] is on record?
Answer: The T/C was 112 % of control.

Question: And the T/C [3]?
Answer: Its T/C is 118 % of control.

Question: What does the source list for `O=C1c2ccccc2C(=O)N1Cc1ccc(Cl)cc1[N+](=O)[O-]`?
Answer: T/C [6]: 103 % of control; T/C [7]: 109 % of control; T/C [11]: 98 % of control

Question: What does the source list for `CCOC(=O)C(O)(CC)CCC(C)C` (configuration not stated)?
Answer: T/C [2]: 100 % of control; T/C [4]: 100 % of control; T/C [5]: 100 % of control

Question: What does the source list for `CCCCOCN(CC(CC)CCCC)CC(CC)CCCC` (configuration not stated)?
Answer: T/C [12]: 98 % of control; T/C [13]: 100 % of control; T/C [14]: 104 % of control

Question: Which results are given for `CC12CCC(C3(C)CCC4CC3(O)C4)C(CO)C1CCC2=O` (configuration not stated)?
Answer: T/C (dose: 7.5 mg/kg/injection, schedule: Q01DX005 (ip), vehicle: Klucel (hydroxypropylcellulose) (HPC)): 96 % of control; T/C (dose: 15.0 mg/kg/injection, schedule: Q01DX005 (ip), vehicle: Klucel (hydroxypropylcellulose) (HPC)): 103 % of control; T/C (dose: 30.0 mg/kg/injection, schedule: Q01DX005 (ip), vehicle: Klucel (hydroxypropylcellulose) (HPC)): 98 % of control

Question: How did the T/C (dose: 25.0 mg/kg/injection, schedule: Q01DX001 (ip), vehicle: suspension in saline) turn out when `Cc1ccc(S(=O)(=O)N2CC3CC(/C=C/c4ccnc5ccccc45)CC(C3)C2)cc1` (configuration not stated) was run?
Answer: Its T/C is 96 % of control.

Question: What about the T/C (dose: 50.0 mg/kg/injection, schedule: Q01DX001 (ip), vehicle: suspension in saline) of the same compound?
Answer: Its T/C is 102 % of control.

Question: And the T/C (dose: 100.0 mg/kg/injection, schedule: Q01DX001 (ip), vehicle: suspension in saline)?
Answer: Its T/C is 95 % of control.

Question: Which results are given for `Cc1ccc(S(=O)(=O)CCC(=O)c2ccc([N+](=O)[O-])cc2)cc1`?
Answer: T/C [6]: 96 % of control; T/C [7]: 96 % of control; T/C [11]: 96 % of control

Question: Which T/C (dose: 50.0 mg/kg/injection, schedule: Q01DX005 (ip), vehicle: saline) does the source give for `CC1=N[C@@H](N2CCOCC2)[C@H](N2CCOCC2)N1c1ccccc1` here?
Answer: The T/C was 100 % of control.

Question: What about the T/C (dose: 100.0 mg/kg/injection, schedule: Q01DX005 (ip), vehicle: saline) of the same compound?
Answer: The T/C was 107 % of control.

Question: What about the T/C (dose: 200.0 mg/kg/injection, schedule: Q01DX005 (ip), vehicle: saline) of the same compound?
Answer: The T/C was 102 % of control.

Question: With `N#CC(C(=O)CCC(=O)C(C#N)c1c(Cl)cccc1Cl)c1c(Cl)cccc1Cl` (configuration not stated) as the compound, how does the T/C [12] read?
Answer: Its T/C is 100 % of control.

Question: And the T/C [13]?
Answer: Its T/C is 98 % of control.

Question: What about the T/C [14] of the same compound?
Answer: Its T/C is 98 % of control.

Question: What does the source list for `Cc1ccc(-c2nc3n(c2C=O)CCS3)cc1`?
Answer: T/C (dose: 100.0 mg/kg/injection, schedule: Q01DX001 (ip), vehicle: Klucel (hydroxypropylcellulose) (HPC)): 112 % of control; T/C (dose: 200.0 mg/kg/injection, schedule: Q01DX001 (ip), vehicle: Klucel (hydroxypropylcellulose) (HPC)): 106 % of control; T/C (dose: 400.0 mg/kg/injection, schedule: Q01DX001 (ip), vehicle: Klucel (hydroxypropylcellulose) (HPC)): 98 % of control

Question: How did the T/C [1] turn out when `Nc1nc(Cl)c2[nH]cnc2n1` was run?
Answer: Its T/C is 108 % of control.

Question: And the T/C [2]?
Answer: The T/C was 95 % of control.

Question: What about the T/C [3] of the same compound?
Answer: The T/C was 99 % of control.

Question: What about the T/C [4] of the same compound?
Answer: Its T/C is 100 % of control.

Question: And the T/C [5]?
Answer: The T/C was 100 % of control.
